In patent publication US20110086834A1, “ALKYNYL ALCOHOLS AS KINASE INHIBITORS” (AMGEN INC., priority 2008, published 2011):

Molecular target: T1, NIK (Homo sapiens, UniProt Q99558)
T1 construct: Both assays utilize a truncated form of NIK containing only the catalytic domain; made in house; host or cells: baculovirus expression system (insect cells implied)
Assay: homogenous time resolved fluorescence (HTRF) assay for NIK Ki measurement
Assay type: biochemical
Settings: truncated NIK (catalytic domain only), autophosphorylation; 10 nM enzyme; 20, 100, 200 or 500 μM ATP; room temperature, 2 hours; read-out: Ki activity in the homogenous time resolved fluorescence (HTRF) assay for NIK

T1 sequence (Q99558 400-655 limits assumed): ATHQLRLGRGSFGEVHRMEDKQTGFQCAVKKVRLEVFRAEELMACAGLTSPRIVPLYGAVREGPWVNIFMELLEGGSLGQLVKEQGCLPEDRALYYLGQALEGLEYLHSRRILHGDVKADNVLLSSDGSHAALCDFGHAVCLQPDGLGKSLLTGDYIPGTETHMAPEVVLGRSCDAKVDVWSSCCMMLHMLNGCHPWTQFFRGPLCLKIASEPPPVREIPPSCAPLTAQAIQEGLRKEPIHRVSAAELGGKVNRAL

| Structure (SMILES) | Ki |
| --- | --- |
| C[C@](O)(C#Cc1ccc(CN2CCOCC2)c(Nc2nc(N)ncc2Cl)c1)c1nccs1 [Example 162, (S)-4-(3-(2-Amino-5-chloropyrimidin-4-ylamino)-4-(morpholinomethyl)phenyl)-2-(thiazol-2-yl)but-3-yn-2-ol] | < 1 µM |
| Nc1nccc(-n2ccc3c(O)cc(C#CC4(O)CCCC4)cc32)n1 [Example 99, 1-(2-aminopyrimidin-4-yl)-6-(2-(1-hydroxycyclopentyl)ethynyl)-1H-indol-4-ol] | < 1 µM |
| Nc1ncc(Cl)c(-c2cn(CC3CCOC3)c3ccc(C#CC4(O)CCCC4)cc23)n1 (centres unmarked) [Example 134, 1-(2-(3-(2-amino-5-chloropyrimidin-4-yl)-1-((tetrahydrofuran-3-yl)methyl)-1H-indol-5-yl)ethynyl)cyclopentanol] | < 1 µM |
| Cn1ccc(C(C)(O)C#Cc2ccc3c(c2)N(c2nc(N)ncc2Cl)CC3)n1 (centres unmarked) [Example 26, 4-(1-(2-amino-5-chloropyrimidin-4-yl)indolin-6-yl)-2-(1-methyl-1H-pyrazol-3-yl)but-3-yn-2-ol] | < 1 µM |
| CC(=O)Nc1cc(C#CC2(O)CCCC2)cc2c1ccn2-c1ccnc(N)n1 [Example 101, N-(1-(2-aminopyrimidin-4-yl)-6-(2-(1-hydroxycyclopentyl)ethynyl)-1H-indol-4-yl)acetamide] | < 1 µM |
| C[C@@](O)(C#Cc1ccc2[nH]cc(-c3ccncn3)c2c1)c1nccs1 [Example 117, (2R)-4-(3-(pyrimidin-4-yl)-1H-indol-5-yl)-2-(thiazol-2-yl)but-3-yn-2-ol] | < 1 µM |
| CNc1ncc(Cl)c(-c2c[nH]c3ccc(C#CC4(O)CCCC4)cc23)n1 [Example 112, 1-(2-(3-(5-chloro-2-(methylamino)pyrimidin-4-yl)-1H-indol-5-yl)ethynyl)cyclopentanol] | < 1 µM |
| CC(O)(C#Cc1cccc(Nc2nc(N)ncc2Cl)n1)c1nccs1 (centres unmarked) [Example 147, 4-(6-(2-Amino-5-chloropyrimidin-4-ylamino)pyridin-2-yl)-2-(thiazol-2-yl)but-3-yn-2-ol] | 1 to 30 µM |
| Cc1ccc(S(=O)(=O)n2nccc2C(C)(O)C#Cc2ccc3c(c2)N(c2ccnc(N)n2)CC3)cc1 (centres unmarked) [Example 76, 4-(1-(2-Amino-4-pyrimidinyl)-2,3-dihydro-1H-indol-6-yl)-2-(1-((4-methylphenyl)sulfonyl)-1H-pyrazol-5-yl)-3-butyn-2-ol] | < 1 µM |
| Nc1ncc(Cl)c(-c2cn(CCOCCOCCO)c3ccc(C#CC4(O)CCCC4)cc23)n1 [Example 130] | < 1 µM |

Next, values leading:

| Ki | Structure (SMILES) |
| --- | --- |
| < 1 µM | Cc1cc(C(C)(O)C#Cc2ccc3c(c2)N(c2nc(N)ncc2Cl)C[C@@]32CCOC2)no1 (single isomer, unassigned) [Example 203, 4-((3R*)-1′-(2-Amino-5-chloro-4-pyrimidinyl)-1′,2′,4,5-tetrahydrospiro[furan-3,3′-indol]-6′-yl)-2-(5-methyl-3-isoxazolyl)-3-butyn-2-ol] |
| < 1 µM | C[C@@](O)(C#Cc1ccc2c(c1)N(c1nc(N)ncc1Cl)CC21CCCC1)c1nccs1 [Example 318] |
| < 1 µM | CC(O)(C#Cc1ccc(F)c(Nc2nc(N)ncc2Cl)c1)c1nccs1 (centres unmarked) [Example 166, 4-(3-(2-Amino-5-chloropyrimidin-4-ylamino)-4-fluorophenyl)-2-(thiazol-2-yl)but-3-yn-2-ol] |
| 1 to 30 µM | CNC(=O)c1cc(N2CCc3ccc(C#CC4(O)CCCC4)cc32)ccn1 [Example 255, 4-(6-((1-hydroxycyclopentyl)ethynyl)-2,3-dihydro-1H-indol-1-yl)-N-methyl-2-pyridinecarboxamide] |
| < 1 µM | Cc1cc(C(C)(O)C#Cc2ccc3c(c2)N(c2nc(N)ncc2Cl)CC32CCS(=O)(=O)CC2)no1 (racemic) [Example 216, (rac)-4-(1-(2-Amino-5-chloro-4-pyrimidinyl)-1′,1′-dioxido-1,2,2′,3′,5′,6′-hexahydrospiro[indole-3,4′-thiopyran]-6-yl)-2-(5-methyl-3-isoxazolyl)-3-butyn-2-ol] |
| < 1 µM | Cc1nc(C(C)(O)C#Cc2ccc3c(c2)N(c2ccnc(N)n2)CC3)cs1 (centres unmarked) [Example 288, 4-(1-(2-Amino-4-pyrimidinyl)-2,3-dihydro-1H-indol-6-yl)-2-(2-methyl-1,3-thiazol-4-yl)-3-butyn-2-ol] |
| < 1 µM | CC(O)(C#Cc1ccc2c(c1)N(c1nc(N)ncc1Cl)CC21CCOC1)c1nccs1 (racemic) [Example 198, 4-(1′-(2-Amino-5-chloro-4-pyrimidinyl)-1′,2′,4,5-tetrahydrospiro[furan-3,3′-indol]-6′-yl)-2-(1,3-thiazol-2-yl)-3-butyn-2-ol] |
| < 1 µM | CC(O)(C#Cc1cccc(Nc2ccncn2)n1)c1nccs1 (centres unmarked) [Example 173, 4-(6-(pyrimidin-4-ylamino)pyridin-2-yl)-2-(thiazol-2-yl)but-3-yn-2-ol] |
| 1 to 30 µM | Cc1cc(C(C)(O)C#Cc2ccc3c(c2)N(c2ccnc(N)n2)CC3)c(C)o1 (centres unmarked) [Example 279, 4-(1-(2-Amino-4-pyrimidinyl)-2,3-dihydro-1H-indol-6-yl)-2-(2,5-dimethyl-3-furanyl)-3-Butyn-2-ol] |
| < 1 µM | CN1Cc2cnc(N)nc2-c2c(n(C)c3ccc(C#CC4(O)CCCC4)cc23)C1=O [Example 244, 2-Amino-1′-((1-hydroxycyclopentyl)ethynyl)-6,8-dimethyl-5,8-dihydropyrimido[4′,5′:5,6]azepino[3,4-b]indol-7(6H)-one] |

Molecular target: T1, NIK
Assay: chemiluminescent (CL) assay for NIK IC50 determination
Assay type: biochemical
Settings: truncated NIK (catalytic domain only), autophosphorylation; 50 nM biotinylated-NIK; 50 μM ATP; room temperature, 1 hour
Experimental: Two formats of biochemical assays are implemented: (1) chemiluminescent (CL) assay for NIK IC50 determination; (2) homogenous time resolved fluorescence (HTRF) assay for NIK Ki measurement. […] The NIK proteins are purified with baculovirus expression system and further biotinylated with N-hydroxysuccinamide biotin ester (Sigma). […] The reaction mixtures are then immobilized on a Streptavidin-coated plate (Pierce). […] For the HTRF assay, 10 nM of enzyme are incubated with compounds in the presence of 20, 100, 200, or 500 μM of ATP in a buffer with 20 mM of Hepes pH7.5, 20 mM of MgCl2, 0.2% of Tween 20 and 1 mM of DTT at room temperature for 2 hours.

| Structure (SMILES) | IC50 |
| --- | --- |
| COCCn1cc(-c2nc(N)ncc2Cl)c2cc(C#CC(C)(O)c3nccs3)ccc21 (centres unmarked) [Example 115, 4-(3-(2-amino-5-chloropyrimidin-4-yl)-1-(2-methoxyethyl)-1H-indol-5-yl)-2-(thiazol-2-yl)but-3-yn-2-ol] | < 1 µM |
| Nc1ncc(Cl)c(-c2cn(C(=O)c3cccnc3)c3ccc(C#CC4(O)CCCC4)cc23)n1 [Example 123, (3-(2-amino-5-chloropyrimidin-4-yl)-5-(2-(1-hydroxycyclopentyl)ethynyl)-1H-indol-1-yl)(pyridin-3-yl)methanone] | < 1 µM |
| Nc1ncc(Cl)c(-c2cn(C3CCOC3)c3ccc(C#CC4(O)CCCC4)cc23)n1 (centres unmarked) [Example 138, 1-(2-(3-(2-amino-5-chloropyrimidin-4-yl)-1-(tetrahydrofuran-3-yl)-1H-indol-5-yl)ethynyl)cyclopentanol] | < 1 µM |
| COCCn1cc(-c2nc(N)ncc2Cl)c2cc(C#CC3(O)CC[C@@H](C)C3)ccc21 (stereo partly drawn) [Example 140, (3R)-1-(2-(3-(2-amino-5-chloropyrimidin-4-yl)-1-(2-methoxyethyl)-1H-indol-5-yl)ethynyl)-3-methylcyclopentanol] | < 1 µM |
| CC1(CCO)CN(c2nc(N)ncc2Cl)c2cc(C#CC3(O)CCCC3)ccc21 (centres unmarked) [Example 51, 1-((1-(2-amino-5-chloro-4-pyrimidinyl)-3-(2-hydroxyethyl)-3-methyl-2,3-dihydro-1H-indol-6-yl)ethynyl)cyclopentanol] | < 1 µM |

The remaining lines, values ahead:

| IC50 | Structure (SMILES) |
| --- | --- |
| < 1 µM | COCCOc1cnc(N)nc1-c1c[nH]c2ccc(C#CC(O)(c3ccccc3)C(F)(F)F)cc12 (centres unmarked) [Example 235, 4-(3-(2-Amino-5-(2-methoxyethoxy)-4-pyrimidinyl)-1H-indol-5-yl)-1,1,1-trifluoro-2-phenyl-3-butyn-2-ol] |
| < 1 µM | CN1CCC2(C1)CN(c1ccnc(N)n1)c1cc(C#CC3(O)CCCC3)ccc12 (racemic) [Example 189, (rac)-1-((1-(2-Amino-4-pyrimidinyl)-1′-methyl-1,2-dihydrospiro[indole-3,3′-pyrrolidin]-6-yl)ethynyl)cyclopentanol] |
| < 1 µM | CC(O)(C#Cc1ccc2c(c1)N(c1nc(N)ncc1Cl)CC2)c1nccs1 (centres unmarked) [Example 286, 4-(1-(2-Amino-5-chloro-4-pyrimidinyl)-2,3-dihydro-1H-indol-6-yl)-2-(1,3-thiazol-2-yl)-3-Butyn-2-ol] |
| < 1 µM | O=C(c1ccc(Nc2nccc(N3CCc4ccc(C#CC5(O)CCCC5)cc43)n2)cc1)N1CCOCC1 [Example 263, 1-((1-(2-((4-(4-morpholinylcarbonyl)phenyl)amino)-4-pyrimidinyl)-2,3-dihydro-1H-indol-6-yl)ethynyl)cyclopentanol] |
